Measurements reported in the NIST ThermoML archive (doi:10.1021/je900570e).
Numbers after ± are expanded uncertainties.

Assay: xn = mol fraction of the nth substance listed
Details: Liquid; for viscosity / speed of sound: 101 kPa; for viscosity: Capillary tube (Ostwald / Ubbelohde) method; for speed of sound: Frequency=2 MHz, Pulse-echo method; for mass density: 101.33 kPa, Vibrating tube method

N#CCc1ccccc1 [benzeneacetonitrile] + ClC(Cl)C(Cl)Cl
Details | mass density, 303.15 K [kg/m3] | mass density, 308.15 K [kg/m3] | mass density, 313.15 K [kg/m3] | speed of sound, 303.15 K [m/s] | speed of sound, 308.15 K [m/s] | speed of sound, 313.15 K [m/s] | viscosity, 303.15 K [mPa·s] | viscosity, 308.15 K [mPa·s] | viscosity, 313.15 K [mPa·s]
x1 = 0.0221 | 1566.5 ± 1.4 | 1558.5 ± 1.4 | 1551.7 ± 1.4 | 1142 ± 7 | 1125 ± 6.9 | 1107.4 ± 6.8 | 1.489 ± 0.018 | 1.376 ± 0.017 | 1.277 ± 0.016
x1 = 0.1374 | 1497.2 ± 1.3 | 1490.1 ± 1.3 | 1483.5 ± 1.3 | 1179.7 ± 7.3 | 1166.3 ± 7.2 | 1154.6 ± 7.1 | 1.661 ± 0.019 | 1.528 ± 0.018 | 1.413 ± 0.017
x1 = 0.2564 | 1426.9 ± 1.3 | 1420 ± 1.3 | 1413.8 ± 1.3 | 1220.9 ± 7.5 | 1209.3 ± 7.5 | 1201.6 ± 7.4 | 1.838 ± 0.021 | 1.678 ± 0.02 | 1.544 ± 0.019
x1 = 0.3743 | 1358.8 ± 1.2 | 1351.7 ± 1.2 | 1345.9 ± 1.2 | 1263.5 ± 7.8 | 1251.5 ± 7.7 | 1245.6 ± 7.7 | 1.954 ± 0.023 | 1.775 ± 0.021 | 1.63 ± 0.02
x1 = 0.4799 | 1297.2 ± 1.2 | 1291.5 ± 1.2 | 1285.9 ± 1.2 | 1303.1 ± 8 | 1289.9 ± 8 | 1283.9 ± 7.9 | 2.011 ± 0.024 | 1.837 ± 0.022 | 1.674 ± 0.021
x1 = 0.5852 | 1236.4 ± 1.1 | 1231.7 ± 1.1 | 1226.2 ± 1.1 | 1343.4 ± 8.3 | 1329.5 ± 8.2 | 1323.9 ± 8.2 | 2.017 ± 0.024 | 1.832 ± 0.023 | 1.682 ± 0.021
x1 = 0.7131 | 1164.2 ± 1 | 1160.2 ± 1 | 1154.9 ± 1 | 1393.9 ± 8.6 | 1381 ± 8.5 | 1373.2 ± 8.5 | 1.966 ± 0.024 | 1.796 ± 0.023 | 1.645 ± 0.021
x1 = 0.8414 | 1093.9 ± 1 | 1089.9 ± 1 | 1085 ± 0.9 | 1446.4 ± 8.9 | 1436.5 ± 8.9 | 1426.2 ± 8.8 | 1.894 ± 0.024 | 1.725 ± 0.022 | 1.597 ± 0.021
x1 = 0.9748 | 1022.5 ± 0.9 | 1018.2 ± 0.9 | 1013.5 ± 0.9 | 1504.3 ± 9.3 | 1497.2 ± 9.2 | 1487.4 ± 9.2 | 1.772 ± 0.023 | 1.617 ± 0.022 | 1.503 ± 0.02
x1 = 1 | 1008.8 ± 0.9 | 1004.1 ± 0.8 | 999.5 ± 0.8 | 1519.2 ± 9.4 | 1512.9 ± 9.3 | 1503.4 ± 9.3 | 1.761 ± 0.023 | 1.602 ± 0.021 | 1.489 ± 0.02

N#CCc1ccccc1 [benzeneacetonitrile] + ClC(Cl)=C(Cl)Cl
Details | mass density, 303.15 K [kg/m3] | mass density, 308.15 K [kg/m3] | mass density, 313.15 K [kg/m3] | speed of sound, 303.15 K [m/s] | speed of sound, 308.15 K [m/s] | speed of sound, 313.15 K [m/s] | viscosity, 303.15 K [mPa·s] | viscosity, 308.15 K [mPa·s] | viscosity, 313.15 K [mPa·s]
x1 = 0.0231 | 1591.9 ± 0.8 | 1583 ± 0.8 | 1575.7 ± 0.8 | 1037.5 ± 6.3 | 1024.4 ± 6.3 | 1010.5 ± 6.2 | 0.8124 ± 0.012 | 0.7752 ± 0.012 | 0.746 ± 0.012
x1 = 0.1322 | 1520.1 ± 0.8 | 1512.1 ± 0.8 | 1505.3 ± 0.8 | 1082.9 ± 6.6 | 1070.9 ± 6.5 | 1060.1 ± 6.5 | 0.884 ± 0.012 | 0.8382 ± 0.012 | 0.8001 ± 0.012
x1 = 0.249 | 1445.2 ± 0.9 | 1438 ± 0.9 | 1431.6 ± 0.8 | 1133.9 ± 6.9 | 1123.3 ± 6.9 | 1113.4 ± 6.8 | 0.9577 ± 0.013 | 0.9171 ± 0.013 | 0.868 ± 0.013
x1 = 0.37 | 1369.8 ± 0.9 | 1363.1 ± 0.9 | 1357.1 ± 0.9 | 1188.9 ± 7.3 | 1178.8 ± 7.2 | 1168.9 ± 7.2 | 1.06 ± 0.014 | 0.9982 ± 0.014 | 0.9342 ± 0.013
x1 = 0.4713 | 1308.3 ± 0.9 | 1302 ± 0.9 | 1296.2 ± 0.9 | 1236.8 ± 7.6 | 1226.7 ± 7.5 | 1216.8 ± 7.5 | 1.159 ± 0.015 | 1.077 ± 0.014 | 1.003 ± 0.014
x1 = 0.5767 | 1245.7 ± 0.9 | 1239.8 ± 0.9 | 1234.3 ± 0.9 | 1288.5 ± 7.9 | 1278.5 ± 7.9 | 1268.9 ± 7.8 | 1.269 ± 0.016 | 1.172 ± 0.015 | 1.096 ± 0.015
x1 = 0.7051 | 1171.4 ± 0.9 | 1166.1 ± 0.9 | 1160.8 ± 0.9 | 1355 ± 8.3 | 1345 ± 8.3 | 1335.7 ± 8.2 | 1.413 ± 0.018 | 1.294 ± 0.017 | 1.207 ± 0.016
x1 = 0.8386 | 1096.5 ± 0.9 | 1091.6 ± 0.9 | 1086.6 ± 0.9 | 1428 ± 8.8 | 1419.2 ± 8.7 | 1409.3 ± 8.7 | 1.571 ± 0.02 | 1.43 ± 0.019 | 1.329 ± 0.018
x1 = 0.972 | 1023.9 ± 0.9 | 1019.2 ± 0.9 | 1014.5 ± 0.9 | 1504.1 ± 9.3 | 1497.9 ± 9.2 | 1486.1 ± 9.2 | 1.726 ± 0.023 | 1.57 ± 0.021 | 1.458 ± 0.02
x1 = 1 | 1008.8 ± 0.9 | 1004.1 ± 0.8 | 999.5 ± 0.8 | 1519.2 ± 9.4 | 1512.9 ± 9.3 | 1503.4 ± 9.3 | 1.761 ± 0.023 | 1.602 ± 0.021 | 1.489 ± 0.02
